Here are results for 5 compounds from ChEMBL document CHEMBL1201862, “PubChem BioAssay data set” (2004).

Activity calls are given as the source filed them.

The target in data set [1] is UDP-galactopyranose mutase (Mycobacterium tuberculosis, UniProt P9WIQ1). Briefly: Inhibitors of Mycobacterium tuberculosis UDP-galactopyranose mutase (UGM) enzyme Measured in Biochemical System Using Plate Reader - 2105-02_Inhibitor_Dose_CherryPick_Activity. [Related pubchem assays (depositor defined):AID504439].
Data set [2] addresses T1, RNA-binding protein pos-1 (Caenorhabditis elegans, UniProt G5EF15).
T1 sequence (G5EF15 whole entry): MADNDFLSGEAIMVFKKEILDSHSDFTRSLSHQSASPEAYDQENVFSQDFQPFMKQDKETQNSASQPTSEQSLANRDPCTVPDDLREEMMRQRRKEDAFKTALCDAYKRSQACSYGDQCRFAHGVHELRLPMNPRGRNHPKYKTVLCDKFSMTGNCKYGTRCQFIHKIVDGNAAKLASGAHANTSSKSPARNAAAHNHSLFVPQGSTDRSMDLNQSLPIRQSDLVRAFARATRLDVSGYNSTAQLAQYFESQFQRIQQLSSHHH
Put plainly: disruptors of C. elegans POS-1 RNA interaction – biochemical, fluorescence polarization, dose response (AID 1964).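 Further: purified POS-1 fused to maltose binding protein made in E. coli; potency of compounds blocking POS-1 binding to fluorescent RNA.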 In general terms: In fluorescence polarisation assays a small probe gives low polarisation when free and higher when bound to something large.

Data set [3] deals with T2, Zinc finger protein mex-5 (Caenorhabditis elegans, UniProt Q9XUB2).
T2 sequence (Q9XUB2 whole entry): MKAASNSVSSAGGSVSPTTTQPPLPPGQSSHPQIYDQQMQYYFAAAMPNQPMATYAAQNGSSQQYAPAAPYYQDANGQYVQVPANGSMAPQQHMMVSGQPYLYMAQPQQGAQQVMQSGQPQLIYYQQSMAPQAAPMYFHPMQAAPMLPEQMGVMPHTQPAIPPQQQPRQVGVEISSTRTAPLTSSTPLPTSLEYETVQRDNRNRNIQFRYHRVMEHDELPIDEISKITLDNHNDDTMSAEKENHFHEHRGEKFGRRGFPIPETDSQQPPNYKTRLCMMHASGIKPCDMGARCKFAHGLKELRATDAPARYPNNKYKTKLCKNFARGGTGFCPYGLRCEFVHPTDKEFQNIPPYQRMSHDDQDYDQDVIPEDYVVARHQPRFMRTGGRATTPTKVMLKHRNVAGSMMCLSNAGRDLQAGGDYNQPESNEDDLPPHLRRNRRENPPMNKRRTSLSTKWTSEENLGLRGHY
Put plainly: potency of MEX-5 RNA-binding blockers – biochemical, C. elegans, fluorescence polarization, dose response (AID 1960).

The test system of another data set is Streptococcus. Put plainly: GAS UMAA2166 growth inhibition – luminescence, BacTiterGlo, counter-screen for streptokinase expression inhibitor project, dose response (AID 1915).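 Further: potency for reduction of bacterial viability or growth.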 In kind it is functional, organism-based. (In general: Counterscreens check selectivity or assay interference.)
Data set [4] is described as follows: alpha-synuclein stem-loop luciferase translation blockers – H4 neuroglioma cells, luminescence, confirmation (AID 1988). In kind it is functional, cell-based.
Another data set relates to INS1. Briefly: INS-1E survival protection against cytokine death – cell-based, luminescence, retest, dose response (AID 449756).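 Further: cell death triggered by IL-1 beta plus TNF-alpha plus IFN-gamma mixture; protective hits raise ATP signal compared with cytokine alone wells.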 In kind it is functional. The conditions noted are these: Rattus norvegicus.
For data set [5], the target named is C-C chemokine receptor type 6 (Homo sapiens, UniProt P51684). Briefly: antagonism of CCR6 beta-arrestin recruitment – cell-based, luminescent beta-arrestin readout, dose response (AID 504728). In kind it is functional. On the technique in general: Arrestin recruitment assays detect the binding of arrestin to an activated receptor.
The nature of data set [6]: microbe, parasite or virus in culture. It counts as functional. The conditions noted are these: Mycobacterium tuberculosis.
In data set [7] the test system is HEK293. Briefly: cells. The conditions noted are these: Homo sapiens.
A short description of data set [8]: Luminescence Cell-Based Dose Response HTS to Identify Inhibitors of 5'UTR Stem-Loop Driven Prion Protein mRNA Translation in H4 Neuroglioblastoma Cells. [Related pubchem assays: 1827 (Project Summary), 1813 (Primary HTS)]. In kind it is functional.
A further data set concerns the target T3, Streptokinase A (Streptococcus pyogenes serotype M1, UniProt P10520).
T3 sequence (P10520 whole entry): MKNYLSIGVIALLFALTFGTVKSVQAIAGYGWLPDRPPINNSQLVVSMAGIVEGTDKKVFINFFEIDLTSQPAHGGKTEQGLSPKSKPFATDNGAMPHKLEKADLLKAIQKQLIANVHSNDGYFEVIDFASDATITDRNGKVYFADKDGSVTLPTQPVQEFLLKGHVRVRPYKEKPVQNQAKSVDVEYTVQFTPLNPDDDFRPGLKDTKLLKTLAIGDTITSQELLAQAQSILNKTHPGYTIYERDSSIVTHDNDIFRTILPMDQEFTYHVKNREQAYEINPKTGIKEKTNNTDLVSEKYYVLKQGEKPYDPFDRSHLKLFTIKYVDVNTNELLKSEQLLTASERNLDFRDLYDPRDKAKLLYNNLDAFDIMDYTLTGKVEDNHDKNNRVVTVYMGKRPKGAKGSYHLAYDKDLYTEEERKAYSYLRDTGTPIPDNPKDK
Put plainly: viability-normalized secreted streptokinase activity reduction – plasminogen activation absorbance, OD405, dose response (AID 1914).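 Further: secreted streptokinase activity via plasminogen activation per viability signal from cell pellet.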 In kind it is functional, Streptococcus pyogenes M1 GAS.

A further data set deals with Beta-galactosidase (Escherichia coli, UniProt Q8VNN2). Put plainly: detection-enzyme interference by beta-gal modulators – biochemical, E. coli enzyme, set 3, artefact control for CCR6 antagonist project, dose response (AID 504712). It counts as functional.
Data set [9] has as its system Streptococcus sp. 'group A'. Briefly: Streptococcus pyogenes SK(-)GAS viability under kanamycin – luminescence, BacTiterGlo, confirmation, counter-screen for streptokinase expression inhibitor project, dose response (AID 1900). It counts as functional, organism-based.
The test system of data set [10] is HEK293. Put plainly: cells. The conditions noted are these: Homo sapiens. The source holds these as a separate data set.
Data set [11] in a line: luciferase reporter signal suppression in cells – H4 neuroglioma cells, luminescence, dose response (AID 1990). It counts as functional, cell-based.
For the next data set, the target named is Cytochrome P450 2C19 (Homo sapiens, UniProt P33261). Briefly: Cytochrome panel assay with activity outcomes. Panel member name: p450-cyp2c19 Compounds with AC50 equal or less than 10 uM are considered active. It counts as functional. The conditions noted are these: read-out: AC50.
In the next data set the target is T4, Cytochrome P450 1A2 (Homo sapiens, UniProt P05177).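 Further: PubChem cytochrome P450 panel assay, CYP1A2 panel member.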
T4 sequence (P05177 whole entry): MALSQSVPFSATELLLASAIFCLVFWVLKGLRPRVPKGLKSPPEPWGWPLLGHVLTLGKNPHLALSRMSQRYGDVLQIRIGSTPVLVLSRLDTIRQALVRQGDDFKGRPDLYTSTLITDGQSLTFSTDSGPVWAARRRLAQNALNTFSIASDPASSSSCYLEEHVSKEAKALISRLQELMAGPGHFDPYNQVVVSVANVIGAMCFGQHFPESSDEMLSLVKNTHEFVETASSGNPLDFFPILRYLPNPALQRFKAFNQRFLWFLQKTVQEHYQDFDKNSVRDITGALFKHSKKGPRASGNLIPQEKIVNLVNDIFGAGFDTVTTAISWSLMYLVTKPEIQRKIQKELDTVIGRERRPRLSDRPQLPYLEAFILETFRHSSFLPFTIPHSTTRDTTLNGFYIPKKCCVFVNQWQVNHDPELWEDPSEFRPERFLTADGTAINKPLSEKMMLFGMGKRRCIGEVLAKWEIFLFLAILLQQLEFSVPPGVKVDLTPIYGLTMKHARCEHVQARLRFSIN

The next data set concerns the target Cytochrome P450 2D6 (Homo sapiens, UniProt P10635).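 Further: CYP2D6 member of a cytochrome P450 panel assay.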
In another data set the target is Keap1/Nrf2 (Homo sapiens, UniProt Q14145). Briefly: disruptors of Keap1 binding to Nrf2 peptide – biochemical, fluorescence polarization, cherry-picked samples, dose response (AID 588683).
The target in another data set is Apelin receptor (Homo sapiens, UniProt P35414). Briefly: apelin receptor antagonists, arrestin read-out – cell-based, luminescent, enzyme-fragment complementation, selectivity assay for CCR6 antagonist project, SAR follow-up (AID 588359). In kind it is functional.
Sequence of Apelin receptor (P35414 whole entry, the tested form may be a part): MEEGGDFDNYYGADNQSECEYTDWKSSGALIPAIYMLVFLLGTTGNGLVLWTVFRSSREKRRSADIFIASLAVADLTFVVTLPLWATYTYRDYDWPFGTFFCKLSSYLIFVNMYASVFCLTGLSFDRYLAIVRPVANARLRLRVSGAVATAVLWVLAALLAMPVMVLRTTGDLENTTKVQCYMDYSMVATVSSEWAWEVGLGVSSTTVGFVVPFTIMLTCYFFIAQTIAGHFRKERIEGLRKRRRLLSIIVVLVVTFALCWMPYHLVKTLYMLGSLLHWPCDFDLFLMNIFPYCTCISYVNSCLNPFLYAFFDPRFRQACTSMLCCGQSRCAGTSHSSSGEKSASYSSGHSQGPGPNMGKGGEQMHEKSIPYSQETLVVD

Sequence of Beta-galactosidase (Q8VNN2 whole entry): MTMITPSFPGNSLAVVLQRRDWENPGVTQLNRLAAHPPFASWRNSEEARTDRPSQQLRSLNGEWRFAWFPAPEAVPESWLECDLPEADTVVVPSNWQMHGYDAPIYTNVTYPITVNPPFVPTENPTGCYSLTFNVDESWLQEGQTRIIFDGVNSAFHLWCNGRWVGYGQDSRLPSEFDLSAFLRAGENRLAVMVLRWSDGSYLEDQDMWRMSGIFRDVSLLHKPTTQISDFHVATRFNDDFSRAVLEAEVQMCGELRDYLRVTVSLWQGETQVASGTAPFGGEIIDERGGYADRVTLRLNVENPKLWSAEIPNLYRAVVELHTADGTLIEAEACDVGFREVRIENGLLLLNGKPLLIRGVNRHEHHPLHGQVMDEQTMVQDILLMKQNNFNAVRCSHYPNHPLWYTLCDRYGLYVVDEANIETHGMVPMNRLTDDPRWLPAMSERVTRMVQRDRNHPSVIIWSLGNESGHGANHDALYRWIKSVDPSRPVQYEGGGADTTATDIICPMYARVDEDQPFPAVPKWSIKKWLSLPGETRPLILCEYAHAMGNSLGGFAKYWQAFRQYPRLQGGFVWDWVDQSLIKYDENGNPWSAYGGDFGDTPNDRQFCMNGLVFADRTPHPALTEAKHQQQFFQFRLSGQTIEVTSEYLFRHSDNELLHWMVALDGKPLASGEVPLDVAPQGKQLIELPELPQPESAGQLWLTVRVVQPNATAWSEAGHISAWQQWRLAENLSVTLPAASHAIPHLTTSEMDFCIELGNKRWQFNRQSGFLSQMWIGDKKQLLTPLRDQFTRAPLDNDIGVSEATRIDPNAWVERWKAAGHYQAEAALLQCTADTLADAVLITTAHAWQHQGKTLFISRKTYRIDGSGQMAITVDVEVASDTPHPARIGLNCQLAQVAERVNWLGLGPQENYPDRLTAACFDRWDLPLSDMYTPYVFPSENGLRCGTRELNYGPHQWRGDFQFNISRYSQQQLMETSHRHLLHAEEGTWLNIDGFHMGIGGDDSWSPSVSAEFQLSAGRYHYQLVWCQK
Sequence of UDP-galactopyranose mutase (P9WIQ1 whole entry): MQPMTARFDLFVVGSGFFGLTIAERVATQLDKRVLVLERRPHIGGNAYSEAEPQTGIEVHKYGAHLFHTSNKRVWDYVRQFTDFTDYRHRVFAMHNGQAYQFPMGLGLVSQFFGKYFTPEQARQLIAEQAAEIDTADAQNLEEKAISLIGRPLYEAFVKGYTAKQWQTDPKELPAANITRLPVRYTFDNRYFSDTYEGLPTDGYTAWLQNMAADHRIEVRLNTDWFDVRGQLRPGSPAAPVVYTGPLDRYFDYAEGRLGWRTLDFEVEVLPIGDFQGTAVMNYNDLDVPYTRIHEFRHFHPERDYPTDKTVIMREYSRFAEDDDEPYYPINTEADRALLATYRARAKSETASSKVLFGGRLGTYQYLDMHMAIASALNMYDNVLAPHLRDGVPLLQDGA
Sequence of Keap1/Nrf2 (Q16236 whole entry, the tested form may be a part): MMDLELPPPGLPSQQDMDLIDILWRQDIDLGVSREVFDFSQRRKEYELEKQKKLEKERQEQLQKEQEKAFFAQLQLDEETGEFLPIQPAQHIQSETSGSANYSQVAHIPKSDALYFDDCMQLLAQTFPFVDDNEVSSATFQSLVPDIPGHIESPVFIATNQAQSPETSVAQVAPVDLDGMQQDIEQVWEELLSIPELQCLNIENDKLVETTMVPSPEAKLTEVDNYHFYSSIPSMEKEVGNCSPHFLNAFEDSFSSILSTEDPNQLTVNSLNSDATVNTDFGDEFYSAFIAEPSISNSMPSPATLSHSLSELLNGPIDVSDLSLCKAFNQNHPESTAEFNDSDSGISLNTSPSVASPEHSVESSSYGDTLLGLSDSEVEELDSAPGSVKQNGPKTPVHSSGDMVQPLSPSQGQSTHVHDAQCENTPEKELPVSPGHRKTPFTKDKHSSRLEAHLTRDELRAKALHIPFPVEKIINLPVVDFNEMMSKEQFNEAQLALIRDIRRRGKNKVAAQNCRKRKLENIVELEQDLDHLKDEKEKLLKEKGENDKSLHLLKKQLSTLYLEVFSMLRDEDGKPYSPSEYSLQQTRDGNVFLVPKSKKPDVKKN
Sequence of Keap1/Nrf2 (Q14145 whole entry, the tested form may be a part): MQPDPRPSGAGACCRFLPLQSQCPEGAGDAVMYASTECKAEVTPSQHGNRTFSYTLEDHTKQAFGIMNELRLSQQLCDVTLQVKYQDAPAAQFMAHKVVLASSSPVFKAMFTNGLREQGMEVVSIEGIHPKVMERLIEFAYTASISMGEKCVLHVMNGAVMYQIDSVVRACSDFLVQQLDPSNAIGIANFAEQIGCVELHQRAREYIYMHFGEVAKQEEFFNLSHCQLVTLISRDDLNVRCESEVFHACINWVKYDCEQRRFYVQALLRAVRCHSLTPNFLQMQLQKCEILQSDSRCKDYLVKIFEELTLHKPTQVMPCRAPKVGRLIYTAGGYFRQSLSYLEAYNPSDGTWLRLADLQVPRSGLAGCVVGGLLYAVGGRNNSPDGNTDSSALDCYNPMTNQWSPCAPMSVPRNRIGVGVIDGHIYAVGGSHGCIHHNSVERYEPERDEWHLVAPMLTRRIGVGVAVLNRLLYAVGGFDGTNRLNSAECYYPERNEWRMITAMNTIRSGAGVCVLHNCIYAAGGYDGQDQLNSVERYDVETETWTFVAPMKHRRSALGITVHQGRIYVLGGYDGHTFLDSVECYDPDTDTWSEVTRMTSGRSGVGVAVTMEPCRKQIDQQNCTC
Sequence of Cytochrome P450 2D6 (P10635 whole entry): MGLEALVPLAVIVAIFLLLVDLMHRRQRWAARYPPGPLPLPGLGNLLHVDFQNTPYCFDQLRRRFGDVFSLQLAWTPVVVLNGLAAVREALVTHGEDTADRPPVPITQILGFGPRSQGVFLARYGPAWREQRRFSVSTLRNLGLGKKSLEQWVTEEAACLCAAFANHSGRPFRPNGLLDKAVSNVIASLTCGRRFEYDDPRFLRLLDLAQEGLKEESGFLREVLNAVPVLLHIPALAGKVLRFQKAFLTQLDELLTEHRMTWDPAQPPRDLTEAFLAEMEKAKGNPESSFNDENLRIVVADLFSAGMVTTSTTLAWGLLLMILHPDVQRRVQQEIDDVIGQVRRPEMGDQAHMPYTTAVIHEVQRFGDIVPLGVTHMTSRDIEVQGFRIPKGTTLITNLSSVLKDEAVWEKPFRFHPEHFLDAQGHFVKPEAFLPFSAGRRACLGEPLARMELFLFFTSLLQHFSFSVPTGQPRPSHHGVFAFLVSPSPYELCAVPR
Sequence of Cytochrome P450 2C19 (P33261 whole entry): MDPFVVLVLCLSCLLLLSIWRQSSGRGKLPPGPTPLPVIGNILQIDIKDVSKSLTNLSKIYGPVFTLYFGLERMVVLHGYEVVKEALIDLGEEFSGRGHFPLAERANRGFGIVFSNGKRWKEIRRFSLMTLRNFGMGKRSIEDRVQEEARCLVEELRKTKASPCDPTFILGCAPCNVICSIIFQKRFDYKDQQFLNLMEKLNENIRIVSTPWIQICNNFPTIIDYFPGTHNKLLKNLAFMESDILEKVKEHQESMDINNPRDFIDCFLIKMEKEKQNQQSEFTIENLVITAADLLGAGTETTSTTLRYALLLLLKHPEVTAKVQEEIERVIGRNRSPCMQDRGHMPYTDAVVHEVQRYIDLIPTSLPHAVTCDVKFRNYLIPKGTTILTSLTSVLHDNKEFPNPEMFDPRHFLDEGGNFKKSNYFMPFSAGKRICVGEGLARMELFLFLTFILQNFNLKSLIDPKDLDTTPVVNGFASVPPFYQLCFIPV
Sequence of C-C chemokine receptor type 6 (P51684 whole entry): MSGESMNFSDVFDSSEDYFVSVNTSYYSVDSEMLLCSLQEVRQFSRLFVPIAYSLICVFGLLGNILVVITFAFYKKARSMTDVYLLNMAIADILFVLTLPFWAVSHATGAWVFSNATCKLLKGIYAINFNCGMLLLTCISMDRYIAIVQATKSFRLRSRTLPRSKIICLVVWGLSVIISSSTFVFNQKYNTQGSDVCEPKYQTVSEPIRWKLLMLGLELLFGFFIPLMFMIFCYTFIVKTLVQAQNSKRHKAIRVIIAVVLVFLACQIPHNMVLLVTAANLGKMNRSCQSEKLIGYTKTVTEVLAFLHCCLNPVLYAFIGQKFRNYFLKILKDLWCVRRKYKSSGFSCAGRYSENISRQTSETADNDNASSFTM

In the case of `COC(=O)Cn1cc(C=C2C(=O)N(C)C(=O)N(C)C2=O)c2ccccc21`, in data set [1], the AC50 was 129 µM (active). The EC50 in data set [2] was 3.15 µM (inconclusive); in [3], 2.85 µM (inconclusive).
Regarding `COc1cccc(/C=N/Nc2nc(Nc3ccccc3)nc(-n3nc(C)cc3C)n2)c1O`, the EC50 is 4.15 µM (active) in the data set on Streptococcus; 8.28 µM (active) in data set [4]; > 59.6 µM (inactive) in the data set on HEK293 [7]; 0.127 µM (active) in data set [8]; > 150 µM (not active) on Streptokinase A; 1.7 µM (active) in [9]. The figures for the EC50 (with HEK293 [10]; in data set [11]) were > 59.6 µM (inactive) and 52.9 µM (active), respectively. The half-maximal activity concentration (AC50) in the data set with INS1 was 0.535 µM (active). The IC50 (in [5]; at Beta-galactosidase) was > 66.6 µM (inactive) each time. In addition, in data set [6], the CC50 was 8.56 µM (active).
Regarding `COc1ccc(-c2oc3ccccc3c(=O)c2OC(=O)c2ccc(C)cc2)cc1`, the AC50 on Cytochrome P450 2C19 is 1 µM (inconclusive); at Cytochrome P450 1A2 it was 1.41 µM (inconclusive); on Cytochrome P450 2D6, “inconclusive”.
On to `Cc1ccc(S(=O)(=O)Nc2cccc(S(=O)(=O)Nc3ccccc3C(=O)O)c2)c(C)c1`, for which the AC50 at Keap1/Nrf2 is > 52 µM (inactive).
With `CCOC(=O)N1CCN(C(=O)C2CCN(C(=O)c3ccccc3C)CC2)CC1`, the IC50 on Apelin receptor and at Beta-galactosidase was > 66.6 µM (inactive) throughout.

As a reminder, the AC50 is the concentration giving half of the maximal activity seen. Usually EC50 stands for the concentration that produces a half-maximal response. As a reminder, the IC50 is the concentration needed to halve the response being measured.
